# Data published in patent US20230278972A1, “SUBSTITUTED HALOALKYL SULFONANILIDE HERBICIDES” (FMC Corporation, priority 2020, published 2023).
# Tests used:
# Assay type in all cases: in vivo
# [1] = system: ragweed (common ragweed, Ambrosia artemisiifolia); experiment: Test A preemergence, ragweed; details: Preemergence, 0 to 100 scale (0 no effect, 100 complete control)
# Outline: (§1)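 Compounds in non-phytotoxic solvent with surfactant. Soil: loam/sand. Preemergence via directed soil spray after seeding; postemergence on seedlings 2–10 cm, one- to two-leaf.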
# kochia (Bassia scoparia) [2] = experiment: Test A preemergence, kochia; details: Preemergence, 0 to 100 scale (0 no effect, 100 complete control)
# Outline: as §1
# [3] = system: Foxtail, Giant (giant foxtail, Setaria faberi); experiment: Test A postemergence, Foxtail, Giant; details: Postemergence, 0 to 100 scale (0 no effect, 100 complete control); for Plant response rating, Foxtail, Giant: 125 g ai/ha; for Foxtail, Giant plant response rating: 500 g ai/ha, visual injury vs untreated controls after approx. 10 days
# Outline: as §1
# [4] = system: pigweed (Amaranthus retroflexus); experiment: Test A postemergence, pigweed; details: Postemergence, 0 to 100 scale (0 no effect, 100 complete control); for Plant response rating, Pigweed: 125 g ai/ha; for Pigweed plant response rating: 500 g ai/ha, visual injury vs untreated controls after approx. 10 days
# Outline: as §1
# corn (Zea mays) = experiment: Test A postemergence, corn; details: Postemergence, 0 to 100 scale (0 no effect, 100 complete control); for Plant response rating, Corn: 125 g ai/ha; for Corn plant response rating: 500 g ai/ha, visual injury vs untreated controls after approx. 10 days
# Outline: as §1
# kochia (Bassia scoparia) [5] = experiment: Test A postemergence, kochia; details: Postemergence, 0 to 100 scale (0 no effect, 100 complete control); for Plant response rating, Kochia: 125 g ai/ha; for Kochia plant response rating: 500 g ai/ha, visual injury vs untreated controls after approx. 10 days
# Outline: as §1
# [6] = system: Ryegrass, Italian (Italian ryegrass, Lolium multiflorum); experiment: Test A postemergence, Ryegrass, Italian; details: Postemergence, 0 to 100 scale (0 no effect, 100 complete control); for Plant response rating, Ryegrass, Italian: 125 g ai/ha; for Ryegrass, Italian plant response rating: 500 g ai/ha, visual injury vs untreated controls after approx. 10 days
# Outline: as §1
# [7] = system: pigweed (Amaranthus retroflexus); experiment: Test A preemergence, pigweed; details: 0 to 100 scale (0 no effect, 100 complete control)
# Text: Seeds of plant species selected from barnyardgrass (Echinochloa crus-galli), kochia (Bassia scoparia), ragweed (common ragweed, Ambrosia artemisiifolia), Ryegrass, Italian (Italian ryegrass, Lolium multiflorum), Foxtail, Giant (giant foxtail, Setaria faberi), and pigweed (Amaranthus retroflexus) were planted into a blend of loam soil and sand and treated preemergence with a directed soil spray using test chemicals formulated in a non-phytotoxic solvent mixture which included a surfactant. At the same time, plants selected from these weed species and also wheat (Triticum aestivum), corn (Zea mays), blackgrass (Alopecurus myosuroides), and galium (catchweed bedstraw, Galium aparine) were planted in pots containing the same blend of loam soil and sand and treated with postemergence applications of test chemicals formulated in the same manner. Plants ranged in height from 2 to 10 cm and were in the one- to two-leaf stage for the postemergence treatment. […] A dash (-) response means no test result.
# [8] = system: blackgrass (Alopecurus myosuroides); experiment: Test A postemergence, blackgrass; details: Postemergence, 0 to 100 scale (0 no effect, 100 complete control); for Plant response rating, Blackgrass: 125 g ai/ha; for Blackgrass plant response rating: 500 g ai/ha, visual injury vs untreated controls after approx. 10 days
# Outline: as §1
# [9] = system: galium (catchweed bedstraw, Galium aparine); experiment: Test A postemergence, galium; details: Postemergence, 0 to 100 scale (0 no effect, 100 complete control); for Plant response rating, Galium: 125 g ai/ha; for Galium plant response rating: 500 g ai/ha, visual injury vs untreated controls after approx. 10 days
# Outline: (§2)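 Greenhouse pot test in a loam–sand blend; compounds delivered in a non-phytotoxic solvent carrying a surfactant, applied either as a directed spray to soil at seeding or over seedlings 2 to 10 cm high with one to two leaves.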
# [10] = system: Ryegrass, Italian (Italian ryegrass, Lolium multiflorum); experiment: Test A preemergence, Ryegrass, Italian; details: Preemergence, 0 to 100 scale (0 no effect, 100 complete control)
# Outline: as §1
# [11] = system: barnyardgrass (Echinochloa crus-galli); experiment: Test A preemergence, barnyardgrass; details: Preemergence, 0 to 100 scale (0 no effect, 100 complete control)
# Outline: as §1
# [12] = system: ragweed (common ragweed, Ambrosia artemisiifolia); experiment: Test A postemergence, ragweed; details: Postemergence, 0 to 100 scale (0 no effect, 100 complete control); for Plant response rating, Ragweed: 125 g ai/ha; for Ragweed plant response rating: 500 g ai/ha, visual injury vs untreated controls after approx. 10 days
# Outline: as §1
# [13] = system: wheat (Triticum aestivum); experiment: Test A postemergence, wheat; details: Postemergence, 0 to 100 scale (0 no effect, 100 complete control); for Plant response rating, Wheat: 125 g ai/ha; for Wheat plant response rating: 500 g ai/ha, visual injury vs untreated controls after approx. 10 days
# Outline: as §2
# [14] = system: Foxtail, Giant (giant foxtail, Setaria faberi); experiment: Test A preemergence, Foxtail, Giant; details: Preemergence, 0 to 100 scale (0 no effect, 100 complete control)
# Outline: as §1
# [15] = 125 g ai/ha, visual injury, approx. 10 days
SMILES,"Plant response rating, Ragweed [1, 15]","Plant response rating, Ragweed ([1]; 500 g ai/ha)","Plant response rating, Kochia (kochia (Bassia scoparia) [2]; [15])","Plant response rating, Kochia (kochia (Bassia scoparia) [2]; 500 g ai/ha)","Plant response rating, Foxtail, Giant [3]","Foxtail, Giant plant response rating [3]","Plant response rating, Pigweed [4]",Pigweed plant response rating [4],"Plant response rating, Corn (corn (Zea mays))",Corn plant response rating (corn (Zea mays)),"Plant response rating, Kochia (kochia (Bassia scoparia) [5])",Kochia plant response rating (kochia (Bassia scoparia) [5]),"Plant response rating, Ryegrass, Italian [6]","Ryegrass, Italian plant response rating [6]","Plant response rating, Pigweed [7, 15]","Plant response rating, Pigweed ([7]; 500 g ai/ha)","Plant response rating, Blackgrass [8]",Blackgrass plant response rating [8],"Plant response rating, Galium [9]",Galium plant response rating [9],other results
Cc1cc(Cl)c(N(S(=O)(=O)C(F)(F)F)S(=O)(=O)C(F)(F)F)cc1C(=O)N1CCC(Cl)CC1 [Compound 200],40,90,60,90,0,20,60,90,0,20,10,40,20,20,100,100,0,0,60,90,"Plant response rating, Ryegrass, Italian [10, 15]: 30; Plant response rating, Ryegrass, Italian ([10]; 500 g ai/ha): 90; Plant response rating, Barnyardgrass [11, 15]: 30; Plant response rating, Barnyardgrass ([11]; 500 g ai/ha): 100; Plant response rating, Ragweed [12]: 0; Ragweed plant response rating [12]: 30; Plant response rating, Wheat [13]: 20; Wheat plant response rating [13]: 70; Plant response rating, Foxtail, Giant [14, 15]: 90; Plant response rating, Foxtail, Giant ([14]; 500 g ai/ha): 100"
Cc1cc(Cl)c(NS(=O)(=O)C(F)(F)F)cc1C(=O)N1CCC(F)CC1 [Compound 201],70,100,90,100,50,90,60,100,20,50,60,90,30,70,100,100,20,30,90,90,"Plant response rating, Ryegrass, Italian [10, 15]: 60; Plant response rating, Ryegrass, Italian ([10]; 500 g ai/ha): 90; Plant response rating, Barnyardgrass [11, 15]: 50; Plant response rating, Barnyardgrass ([11]; 500 g ai/ha): 100; Plant response rating, Ragweed [12]: 80; Ragweed plant response rating [12]: 90; Plant response rating, Wheat [13]: 60; Wheat plant response rating [13]: 70; Plant response rating, Foxtail, Giant [14, 15]: 50; Plant response rating, Foxtail, Giant ([14]; 500 g ai/ha): 100"
